Measured values as given in PMC12596218 (Journal of Lipid Research, 2025).
Several values for one entry are separate records, joined by “and”; a condition that tells them apart may be missing. Equal entries are not always repeated.

What was measured:
OATP2B1 = conditions: cited from earlier work
OATP1B3 = biological target: T1, OATP1B3 (Homo sapiens, UniProt Q9NPD5); assay: [3H]BSP transport inhibition assay in OATP1B3-HEK293 cells; format: cell-based; conditions: 1 μM [3H]BSP, 10 min; two independent experiments
T1 construct: stably transfected with the full open reading frames of human NTCP, ASBT, SOAT, OATP1B1, OATP1B3, OATP2B1, and murine Asbt (mAsbt); expressed in transfected cells; host or cells: HEK293, stably transfected (OATP1B3-HEK), tetracycline-induced
T1 sequence (Q9NPD5 1-702): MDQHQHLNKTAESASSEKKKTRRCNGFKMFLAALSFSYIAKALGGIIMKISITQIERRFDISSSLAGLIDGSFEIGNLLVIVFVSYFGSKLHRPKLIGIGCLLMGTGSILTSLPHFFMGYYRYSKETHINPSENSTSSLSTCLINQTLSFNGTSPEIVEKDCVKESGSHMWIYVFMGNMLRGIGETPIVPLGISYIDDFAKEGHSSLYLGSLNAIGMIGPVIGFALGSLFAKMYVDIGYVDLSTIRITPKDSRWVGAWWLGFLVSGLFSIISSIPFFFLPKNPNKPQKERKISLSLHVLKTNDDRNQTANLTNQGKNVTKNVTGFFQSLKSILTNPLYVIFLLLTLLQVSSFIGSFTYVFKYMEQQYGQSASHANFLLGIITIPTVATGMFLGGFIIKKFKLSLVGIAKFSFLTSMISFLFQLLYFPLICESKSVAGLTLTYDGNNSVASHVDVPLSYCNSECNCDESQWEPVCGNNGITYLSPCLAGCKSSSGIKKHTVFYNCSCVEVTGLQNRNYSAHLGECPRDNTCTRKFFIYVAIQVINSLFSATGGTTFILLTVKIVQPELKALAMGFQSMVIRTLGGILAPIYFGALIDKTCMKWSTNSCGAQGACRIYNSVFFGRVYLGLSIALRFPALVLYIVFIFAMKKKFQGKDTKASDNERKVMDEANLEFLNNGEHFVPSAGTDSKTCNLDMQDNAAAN
Text: (§1) Human embryonic kidney HEK293 cells, stably transfected with the full open reading frames of human NTCP, ASBT, SOAT, OATP1B1, OATP1B3, OATP2B1, and murine Asbt (mAsbt) were used as reported ([18], [20], [21], [22], [23]). The NTCP, ASBT, and mAsbt constructs were C-terminally tagged with the FLAG epitope, and the SOAT construct was C-terminally tagged with green fluorescent protein. Non-transfected Flp-In HEK293 cells (Thermo Fisher Scientific) served as the control. All cell lines were maintained at 37°C, 5% CO2 and 95% humidity in DMEM/F-12 medium (Thermo Fisher Scientific) supplemented with 10% fetal calf serum (Sigma-Aldrich), 4 mM L-glutamine (PAA) and penicillin/streptomycin (PAA). Expression of the respective carrier protein was induced by tetracycline treatment at 1 μg/ml (Carl Roth GmbH + Co. KG).
(§2) Cells were seeded onto poly-L-lysine-coated 96-well plates, induced with 1 μg/ml tetracycline, and grown to confluence over 72 h at 37°C. Then, cells were washed with tempered (37°C) phosphate-buffered saline (PBS, containing 137.0 mM NaCl, 2.7 mM KCl, 1.5 mM KH2PO4, and 7.3 mM Na2HPO4, at pH 7.4) and preincubated with 80 μl sodium transport buffer (STB, containing 142.9 mM NaCl, 4.7 mM KCl, 1.2 mM MgSO4, 1.2 mM KH2PO4, 1.8 mM CaCl2, and 20.0 mM HEPES, at pH 7.4) for 5 min at 37°C. For inhibition studies, the medium was replaced by 80 μl STB containing the respective inhibitor or solvent alone and cells were further incubated for 5 min at 37°C. Transport experiments were started by adding 20 μl of a 5-fold concentrated substrate solution (solved in STB). For transport experiments under sodium-free conditions the same buffer composition was used as for STB, but sodium chloride was substituted with equimolar concentrations of choline chloride as previously reported ([20], [24]). Transport experiments were stopped by washing twice with ice-cold PBS and the plates were kept cool on ice until adding the lysis buffer [1% sodium dodecyl sulfate (SDS) and 1 N NaOH]. Then, the cell-associated radioactivity of the respective tritium-labeled substrate or ligand was quantified by liquid scintillation counting using MicroScint-20 scintillation cocktail (Revvity) in a Packard Microplate Scintillation Counter TopCount NXT (Packard Instrument Company). For IC50 transport inhibition measurements, the mean uptake values measured in non-carrier-expressing HEK293 control cells were defined as 0% uptake control and were subtracted from all other values. Values from cells without inhibitor and solvent alone were set to 100%. Finally, all net transport data were expressed as uptake or binding as % of control. All transport or inhibition graphs were generated with GraphPad Prism 6 (GraphPad). Determination of half maximal inhibitory concentrations (IC50) was done by nonlinear regression analysis using the equation log (inhibitor) versus response—variable slope settings. All data points of the IC50 curves represent means ± SD of quadruplicate determinations. For Km measurements, BS uptake in the absence of sodium was regarded as carrier-independent unspecific uptake and was subtracted from the transport rates in the presence of sodium to obtain carrier-specific uptake rates (indicated as dashed lines). From the specific uptake rates, Michaelis Menten Km values were calculated by non-linear regression analysis.

ASBT = biological target: T2, ASBT (Homo sapiens, UniProt Q12908); assay: [3H]TC transport and inhibition assay in ASBT-HEK293 cells; format: cell-based; conditions: for IC50: 1 μM [3H]TC, 10 min, ASBT-HEK293, two independent experiments
T2 construct: stably transfected with the full open reading frames of human NTCP, ASBT, SOAT, OATP1B1, OATP1B3, OATP2B1, and murine Asbt (mAsbt); expressed in transfected cells; host or cells: HEK293 (Flp-In), stably transfected, tetracycline-induced
T2 sequence (Q12908 1-348): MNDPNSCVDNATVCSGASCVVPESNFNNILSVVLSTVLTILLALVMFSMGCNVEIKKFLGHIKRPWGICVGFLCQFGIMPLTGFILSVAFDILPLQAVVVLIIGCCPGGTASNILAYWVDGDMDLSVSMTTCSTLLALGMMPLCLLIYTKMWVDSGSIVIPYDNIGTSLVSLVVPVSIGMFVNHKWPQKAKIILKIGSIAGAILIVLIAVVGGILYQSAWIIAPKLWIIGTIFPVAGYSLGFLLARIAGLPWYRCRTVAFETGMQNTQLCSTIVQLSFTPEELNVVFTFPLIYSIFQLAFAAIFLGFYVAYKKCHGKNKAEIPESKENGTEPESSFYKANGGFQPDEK
Text: as §1, §2

Row | Structure (SMILES) | IC50 (OATP1B3) | IC50 (ASBT) | Transport inhibition at highest substrate concentration (ASBT; 500 μM [3H]TC) | IC50 ratio for ASBT versus NTCP inhibition (ASBT; measured in this study) | OATP2B1 inhibition (in words) (OATP2B1; in vitro studies, ref EMA EPAR Product Information Maralixibat) | IC50 (OATP2B1; in vitro, ref FDA NDA 214662 Livmarli, read-out: IC50 OATP2B1 inhibition) | Substrate of OATP2B1 (OATP2B1) | Slope of IC50 values versus TC substrate concentration (ASBT; [3H]TC 0.3-500 μM, linear regression)
1 | CCCCC1(CCCC)CS(=O)(=O)c2ccc(N(C)C)cc2[C@@H](c2ccc(OCc3ccc(C[N+]45CCN(CC4)CC5)cc3)cc2)[C@H]1O [maralixibat] | 5500 nM and 5200 nM | – | – | – | Maralixibat is an OATP2B1 inhibitor based on in vitro studies. No potential for clinically relevant drug-drug interactions (DDI), but theoretical risk of interaction with substrates of this carrier. | 1020 nM | – | –
2 | CCCCC1(CCCC)CS(=O)(=O)c2ccc(N(C)C)cc2[C@@H](c2ccc(OCCCC[N+]34CCN(CC3)CC4)cc2)[C@H]1O [SC-435] | 2000 to 8000 nM and 7800 nM and 5100 nM | 200 nM and 230 nM | – | – | – | – | – | –

Continued, in another order:

Row | IC50 (OATP1B3) | IC50 (ASBT) | Transport inhibition at highest substrate concentration (ASBT; 500 μM [3H]TC) | IC50 ratio for ASBT versus NTCP inhibition (ASBT; measured in this study) | Structure (SMILES) | OATP2B1 inhibition (in words) (OATP2B1; in vitro studies, ref EMA EPAR Product Information Maralixibat) | IC50 (OATP2B1; in vitro, ref FDA NDA 214662 Livmarli, read-out: IC50 OATP2B1 inhibition) | Substrate of OATP2B1 (OATP2B1) | Slope of IC50 values versus TC substrate concentration (ASBT; [3H]TC 0.3-500 μM, linear regression)
3 | 5100 nM and 4300 nM | 680 nM and 990 nM | – | – | CCCCC1(CCCC)CN(c2ccccc2)c2cc(SC)c(OCC(=O)N[C@@H](C(=O)N[C@@H](CC)C(=O)O)c3ccc(O)cc3)cc2S(=O)(=O)N1 [odevixibat] | – | – | – | –
4 | 2000 to 8000 nM and 3600 nM and 2200 nM | 180 nM and 250 nM | full transport inhibition | – | CCCC[C@]1(CC)CS(=O)(=O)c2cc(CNC(CC(=O)O)CC(=O)O)c(OC)cc2[C@@H](c2ccccc2)N1 [linerixibat] | – | – | is not a substrate | 4.0 × 10^−4
5 | 4800 nM and 4200 nM | 110 nM and 230 nM | – | 0.002-0.006 | CCCCC1(CCCC)CN(c2ccccc2)c2cc(SC)c(OCC(=O)N[C@@H](C(=O)NCC(=O)O)c3ccccc3)cc2S(=O)(=O)C1 [elobixibat] | – | – | – | –
